Experimental findings from patent US12595252B2, “Inhibitors of SARM1” (DISARM THERAPEUTICS, INC., priority 2019, dated 2026) are described below.

Where only a bound is given, the exact number is not on record here.

One experiment has as its target T1, SARM1 (Homo sapiens, UniProt Q6SZW1).
T1 construct: made in house; host or cells: NRK1-HEK293T cells, transiently transfected; clarified lysate used unpurified
T1 sequence (Q6SZW1 with tags, fused parts or gaps): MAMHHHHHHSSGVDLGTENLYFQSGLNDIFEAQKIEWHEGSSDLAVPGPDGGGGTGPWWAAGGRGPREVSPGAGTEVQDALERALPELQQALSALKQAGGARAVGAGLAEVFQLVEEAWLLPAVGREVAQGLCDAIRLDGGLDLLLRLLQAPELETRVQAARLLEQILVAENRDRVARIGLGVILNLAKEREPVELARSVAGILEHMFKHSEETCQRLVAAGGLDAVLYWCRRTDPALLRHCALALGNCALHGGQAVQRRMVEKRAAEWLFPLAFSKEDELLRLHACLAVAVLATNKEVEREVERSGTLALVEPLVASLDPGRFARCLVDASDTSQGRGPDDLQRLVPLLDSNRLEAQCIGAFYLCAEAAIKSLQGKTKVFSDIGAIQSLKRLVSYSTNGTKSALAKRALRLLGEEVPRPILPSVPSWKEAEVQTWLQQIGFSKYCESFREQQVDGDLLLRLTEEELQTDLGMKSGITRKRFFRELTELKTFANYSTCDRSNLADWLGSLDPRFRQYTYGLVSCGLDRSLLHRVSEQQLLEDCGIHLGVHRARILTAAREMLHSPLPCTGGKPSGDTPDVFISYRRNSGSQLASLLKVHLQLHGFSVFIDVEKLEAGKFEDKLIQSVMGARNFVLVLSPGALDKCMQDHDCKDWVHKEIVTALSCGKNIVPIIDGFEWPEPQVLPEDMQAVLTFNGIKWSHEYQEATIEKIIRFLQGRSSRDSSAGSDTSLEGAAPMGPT
Kind of experiment: ARM-SAM-TIR SARM1 IC50 assay (NADase activity, NAD+ cleavage). It is filed as biochemical.
Conditions: not given
The protocol:
This Example describes an assay of ARM-SAM-TIR NADase activity and use of this assay to measure the efficacy of compounds of Formula I to block SARM1 mediated NAD+ cleavage. This assay is optimized in such a way as to characterize the efficacy of the compounds in Formula I to inhibit SARM1 activity and to calculate an IC50 value for each compound. This assay makes use of full length SARM1, which encompasses the ARM, SAM and TIR domains.
NRK1-HEK293T cells were seeded onto 150 cm^2 plates at 20×10^6 cells per plate. The next day, the cells were transfected with 15 μg ARM-SAM-TIR expression plasmid, SEQ ID NO: 1.
The cultures were supplemented with 1 mM NR at time of transfection to minimize toxicity from ARM-SAM-TIR overexpression. Forty-eight hours after transfection, cells were harvested, pelleted by centrifugation at 1,000 rpm (Sorvall ST 16R centrifuge, Thermo Fisher), and washed once with cold PBS (0.01 M phosphate buffered saline NaCl 0.138 M; KCl 0.0027 M; pH 7.4). The cells were resuspended in PBS with protease inhibitors (cOmplete™ protease inhibitor cocktail, Roche product #11873580001) and cell lysates were prepared by sonication (Branson Sonifer 450, output=3, 20 episodes of stroke). The lysates were centrifuged (12,000×g for 10 min at 4° C.) to remove cell debris and the supernatants (containing ARM-SAM-TIR protein) were stored at −80° C. for later use in the in vitro ARM-SAM-TIR NADase assay (see below). Protein concentration was determined by the Bicinchoninic (BCA) method and used to normalize lysate concentrations.
The enzymatic assay was performed in a 384-well polypropylene plate in Dulbecco's PBS buffer in a final assay volume of 20 μL. ARM-SAM-TIR lysate with a final concentration of 5 μg/mL was pre-incubated with the respective compound at 1% DMSO final assay concentration over 2 h at room temperature. The reaction was initiated by addition of 5 μM final assay concentration of NAD+ as substrate. After a 2 hr room temperature incubation, the reaction was terminated with 40 μL of stop solution of 7.5% trichloroacetic acid in acetonitrile. The NAD+ and ADPR concentrations were analyzed by a RapidFire High Throughput Mass Spectrometry System (Agilent Technologies, Santa Clara, Calif.) using an API4000 triple quadrupole mass spectrometer (AB Sciex Framingham, Mass.).
As to `COc1cncc(NCc2ccc(C3=CCN(C)CC3)nc2)n1` [Example 124], the IC50 (as a rule, the midpoint of a concentration-inhibition curve) lay in the range of 5 to 15 µM.

The same experiment, now with this note: ARM-SAM-TIR lysate 5 μg/mL from NRK1-HEK293T cells; 2 h pre-incubation; 5 μM NAD+; 2 hr room temperature; NAD+ and ADPR by RapidFire MS; read-out: SARM1 IC50.
As to `COc1cncc(NCc2cnn(C3CCCCC3)c2)n1` [Example 106], the concentration for half-maximal inhibition (IC50) lay within 5 to 15 µM.

Turning to `COc1cncc(NCc2cnn(C3CCN(S(C)(=O)=O)CC3)c2)n1` [Example 107], the IC50 was 5 to 15 µM.

Take `COc1cc(NCc2cccnc2)[nH]c(=O)c1` [Example 108]: the IC50 is more than 30 µM. Same read-out and setting: the same measure for `COc1cncc(NCc2cccc(Br)c2)n1` [Example 109]: 5 to 15 µM. Still for that read-out and setting: the same measure for `COc1cncc(NC(=O)c2ccccc2)c1` [Example 110]: more than 30 µM; for `COc1cncc(NC(=O)c2cccnc2)c1` [Example 111]: more than 30 µM.

In the case of `COc1cncc(NCc2cnc(N3CCNCC3C)nc2)n1` (centres unmarked) [Example 112], the IC50 lay in the range of 5 to 15 µM.

Consider `COc1cncc(NCc2ccc(NCCN(C)C)nc2)n1` [Example 113], for which the IC50 lay within 5 to 15 µM. The same measure, in the same setting: to `COc1cncc(NCc2ccc(N3CCNC(=O)C3)nc2)n1` [Example 114] belongs 5 to 15 µM; to `Cn1cc(CNc2cncc(OCc3ccccc3)n2)cn1` [Example 115], more than 30 µM; to `Cn1cc(CNc2cncc(OCC(F)F)n2)cn1` [Example 116], 15 to 30 µM. The same measure, in the same setting: to `Cn1cc(CNc2cncc(OCC(F)(F)F)n2)cn1` [Example 117] belongs more than 30 µM; to `COc1cncc(NCc2ccc(N)nc2)n1` [Example 118], less than 5 µM; to `COc1cncc(NCc2cnn(C3CCN(C)CC3)c2)n1` [Example 119], less than 5 µM.

For `CCN1CCC(n2cc(CNc3cncc(OC)n3)cn2)CC1` [Example 120], the IC50 was less than 5 µM. On the same count and under the same terms, to `COc1cncc(NCc2cnc(C)o2)n1` [Example 121] belongs 5 to 15 µM. For the molecule `CCN1CCN(c2ncc(CNc3cncc(OC)n3)cn2)C(C)C1` (centres unmarked) [Example 122], the concentration for half-maximal inhibition (IC50) lay within 5 to 15 µM.

For the molecule `COc1cncc(NCc2cccc(N3CCN(C(=O)OC(C)(C)C)CC3)c2)n1` [Example 123], the IC50 is 5 to 15 µM. With `COc1cncc(NCc2ccc(C3CCN(C)CC3)nc2)n1` [Example 125], the IC50 lay within 5 to 15 µM. Same read-out and setting: the same measure for `COc1cncc(NCc2cccc(N3CCNCC3)c2)n1` [Example 126]: 5 to 15 µM; for `COc1cncc(NCc2cccc(S(C)(=O)=O)c2)n1` [Example 127]: 15 to 30 µM. The same measure, in the same setting: to `COc1cncc(NCc2cccc(C#N)c2)n1` [Example 128] belongs 5 to 15 µM; to `COc1cncc(NCc2ccc(C#N)cc2)n1` [Example 129], 5 to 15 µM. Same read-out and setting: to `COc1cncc(NCc2ccc(N3CCC(F)(F)CC3)nc2)n1` [Example 130] belongs 5 to 15 µM; to `COc1cncc(NCc2ccc(N3CCN4CCCC4C3)nc2)n1` (centres unmarked) [Example 131], less than 5 µM; to `COc1cncc(NCc2ccc(N3CCN(C(=O)OC(C)(C)C)CC3)nc2)n1` [Example 132], 5 to 15 µM. As to `COc1cncc(NCc2ccc(NS(C)(=O)=O)nc2)n1` [Example 133], the IC50 is 5 to 15 µM. The same measure, in the same setting: to `COc1cncc(NCc2cnn(C3CCN(C(C)=O)CC3)c2)n1` [Example 134] belongs 15 to 30 µM; to `COc1cnnc(NCc2cn[nH]c2)c1` [Example 135], 15 to 30 µM; to `COc1cc(NC(=O)c2cccnc2)cnn1` [Example 136], 5 to 15 µM.

For the molecule `COc1cc(NC(=O)c2cnccn2)cnn1` [Example 137], the IC50 is more than 30 µM. Still for that read-out and setting: to `CCc1cncc(NCc2cccnc2)n1` [Example 138] belongs 15 to 30 µM; to `CNC(=O)c1cncc(NCc2cccnc2)n1` [Example 139], 5 to 15 µM; to `COc1cc(NCc2cccnc2)n[nH]c1=O` [Example 140], 15 to 30 µM. On the same count and under the same terms, the same measure for `COc1cncc(NCc2ccc(-c3ccncc3)nc2)n1` [Example 141]: 5 to 15 µM. `COc1cncc(NCc2ccc(-c3ccccc3)nc2)n1` [Example 142]: the half-inhibitory concentration (IC50) lay in the range of 5 to 15 µM. Still for that read-out and setting: to `COc1cncc(NCc2ccc(OC(F)(F)F)cc2)n1` [Example 143] belongs 5 to 15 µM; to `COc1cncc(NCc2ccc(C(C)(C)O)cc2)n1` [Example 144], 5 to 15 µM. Same read-out and setting: to `COc1cncc(NCc2cccnc2O)n1` [Example 145] belongs more than 30 µM; to `COc1cncc(NCc2ccc(-c3nnco3)cc2)n1` [Example 146], 5 to 15 µM; to `COc1cncc(NCc2ccc(N3CCN(C(C)C)CC3)nc2)n1` [Example 147], 5 to 15 µM. Still for that read-out and setting: the same measure for `CCCCN1CCN(c2ccc(CNc3cncc(OC)n3)cn2)CC1` [Example 148]: 5 to 15 µM; for `CCNC(=O)n1cc(CNc2cncc(OC)n2)cn1` [Example 149]: 5 to 15 µM. In the case of `COc1cncc(NCc2cnn(S(C)(=O)=O)c2)n1` [Example 150], the IC50 is 5 to 15 µM. Still for that read-out and setting: to `Cn1cc(CNc2cncc(NCCCCO)n2)cn1` [Example 151] belongs 5 to 15 µM; to `CNc1cncc(OC)n1` [Example 152], less than 5 µM. Still for that read-out and setting: the same measure for `COc1cc(NCc2cccnc2)cc(=O)[nH]1` [Example 153]: more than 30 µM.

With `N#Cc1cncc(NCc2cccnc2)n1` [Example 154], the IC50 was more than 30 µM. Same read-out and setting: the same measure for `CCN1CCN(c2cccc(CNc3cncc(OC)n3)c2)CC1` [Example 155]: 5 to 15 µM; for `COc1cncc(NCc2ccc(S(=O)(=O)N(C)C)cc2)n1` [Example 156]: 15 to 30 µM; for `COc1cncc(NCc2ccn(C)c(=O)c2)n1` [Example 157]: 15 to 30 µM.

`COc1cncc(NCc2ccc(-c3nn[nH]n3)cc2)n1` [Example 158]: the concentration for half-maximal inhibition (IC50) was 15 to 30 µM. On the same count and under the same terms, the same measure for `COc1cncc(N)n1` [Example 159]: 15 to 30 µM; for `COc1cncc(N)c1` [Example 160]: 15 to 30 µM; for `CNc1cc(OC)cnn1` [Example 161]: more than 30 µM. The same measure, in the same setting: to `CNc1nccc(OC)n1` [Example 162] belongs more than 30 µM; to `CNc1cncc(OCc2ccccc2)n1` [Example 163], 5 to 15 µM; to `CNC(=O)c1cncc(NC)n1` [Example 164], more than 30 µM. Same read-out and setting: to `CNc1cncc(NCCCCO)n1` [Example 166] belongs 15 to 30 µM; to `CNc1cncc(NCCc2cnn(C)c2)n1` [Example 167], 15 to 30 µM. Consider `CNc1cncc(OCCCNC(=O)OC(C)(C)C)n1` [Example 168], for which the IC50 was more than 30 µM. Regarding `CNc1cncc(OCCCCNC(=O)OC(C)(C)C)n1` [Example 169], the concentration for half-maximal inhibition (IC50) was more than 30 µM. Still for that read-out and setting: the same measure for `CCCOc1cncc(NCc2cnn(C)c2)n1` [Example 170]: more than 30 µM; for `CNc1cncc(OC)c1` [Example 171]: 5 to 15 µM. As for `CNc1cncc(OCCCN)n1` [Example 172], the half-maximal inhibitory concentration (IC50) was more than 30 µM.

In the case of `CNc1cncc(OCCCCN)n1` [Example 173], the IC50 was more than 30 µM. On the same count and under the same terms, the same measure for `CNc1cncc(OCCCCO)n1` [Example 174]: less than 5 µM; for `COc1cc(NCc2ccc(S(N)(=O)=O)cc2)cnn1` [Example 175]: more than 30 µM; for `COc1cc(NCc2cc[nH]c(=O)c2)cnn1` [Example 176]: more than 30 µM. On the same count and under the same terms, the same measure for `Cn1cc(CNc2cncc(OCCC3CCCO3)n2)cn1` (centres unmarked) [Example 177]: more than 30 µM.
